Measurements from patent EP4603105A1, “PHARMACEUTICAL COMPOSITION CONTAINING CYCLIC COMPOUND HAVING SELECTIVE KRAS INHIBITORY EFFECT AGAINST HRAS AND NRAS” (CHUGAI SEIYAKU KABUSHIKI KAISHA, priority 2022, dated 2024).
*1 amine or outer side, *2 acyl side, *3 side chain or, on linkers, in order; H or OH if unused. Where a SMILES comes first, the peptide text is derived from it. Bridges are numbered along the chain shown (N, C = ends). [ ]: non-standard residue; d: D form. The star is where a group is joined. hPhe(3-Cl-4-CF3) = N[C@@H](CCc1ccc(C(F)(F)F)c(Cl)c1)C(=O)O; NPrPhe(4-CF3) = CCCN[C@@H](Cc1ccc(C(F)(F)F)cc1)C(=O)O; NEtPhe(4-CF3) = CCN[C@@H](Cc1ccc(C(F)(F)F)cc1)C(=O)O; hPhe(3,4-Cl2) = N[C@@H](CCc1ccc(Cl)c(Cl)c1)C(=O)O; X13 = CCCN([C@@H](COC1CCC1)C(=O)[*:2])[*:1]; NMeGly(cPent) = CN[C@H](C(=O)O)C1CCCC1; Pro(4,4-Me2) = CC1(C)CN[C@H](C(=O)O)C1; Hyp = O=C(O)[C@@H]1C[C@@H](O)CN1; NMeD = CN[C@@H](CC(=O)O)C(=O)O; NMeL = CN[C@@H](CC(C)C)C(=O)O; Morpholide = C1CN(*)CCO1; Ac5c = NC1(C(=O)O)CCCC1; Aze = O=C(O)[C@@H]1CCN1; Ac4c = NC1(C(=O)O)CCC1; NEtG = CCNCC(=O)O; Sar = CNCC(=O)O

Tests used:
[1] = test system: human lung cancer strain NCI-H441; assay type: cell-based
Method in brief: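 Readout: […] after the ATP-based reagent. Compound: serial dilutions in dimethyl sulfoxide.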

[2] = target: GDP-bound NRAS wild-type protein (Homo sapiens, UniProt P01111); experiment: Binding to NRAS by surface plasmon resonance (SPR), KD and KD ratio to KRAS
Method in brief: (§1)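 GDP-bound biotin-Avi RAS captured at ~100–300 RU, 30°C, pH 7.4 HBS containing 10 µM GDP, 10 mM MgCl2, 1 mM DTT, 0.01% Tween 20 and 4% DMSO. KD by 1:1 fitting.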

HRAS wild-type protein = HRAS wild-type protein (Homo sapiens, UniProt P01112); experiment: Binding to HRAS by surface plasmon resonance (SPR), KD and KD ratio to KRAS
Method in brief: as §1

[3] = ratio of KD value for GDP-bound NRAS wild-type protein to KD value for KRAS (SPR)
[4] = ratio of KD value for HRAS wild-type protein to KD value for KRAS (SPR)
[5] = ratio of KD for GDP-bound NRAS wild-type protein to KD for KRAS
[6] = ratio of KD for HRAS wild-type protein to KD for KRAS
[7] = ratio of the KD value with respect to GDP-bound NRAS wild-type protein to the KD value with respect to KRAS
[8] = ratio of the KD value with respect to HRAS wild-type protein to the KD value with respect to KRAS

GDP-bound NRAS wild-type protein, sequence (P01111 whole entry): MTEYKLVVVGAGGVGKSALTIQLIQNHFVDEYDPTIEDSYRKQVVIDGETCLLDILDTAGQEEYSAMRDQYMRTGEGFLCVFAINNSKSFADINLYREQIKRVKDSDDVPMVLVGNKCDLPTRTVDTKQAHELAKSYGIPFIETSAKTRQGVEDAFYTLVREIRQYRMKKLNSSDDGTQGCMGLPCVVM
HRAS wild-type protein, sequence (P01112 whole entry): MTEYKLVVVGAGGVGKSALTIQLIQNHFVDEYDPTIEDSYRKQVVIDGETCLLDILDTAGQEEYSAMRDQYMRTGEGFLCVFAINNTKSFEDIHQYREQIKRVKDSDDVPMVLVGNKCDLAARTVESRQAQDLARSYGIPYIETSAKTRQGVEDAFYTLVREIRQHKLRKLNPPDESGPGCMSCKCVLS

SMILES | IC50 [1] [nM] | NRAS /KRAS [2, 3] | HRAS /KRAS (HRAS wild-type protein; [4]) | NRAS /KRAS [2, 5] | HRAS /KRAS (HRAS wild-type protein; [6]) | NRAS /KRAS [2, 7] | HRAS /KRAS (HRAS wild-type protein; [8])
CCC[C@H]1C(=O)N[C@@H]([C@@H](C)CC)C(=O)N(C)CC(=O)N(C)[C@H]2C/C=C\CCN(C2=O)[C@@H](Cc2ccc(C(F)(F)F)cc2)C(=O)N(C)CC(=O)N[C@@H](CCc2cc(F)c(C(F)(F)F)c(F)c2)C(=O)N2C[C@H](OCC)C[C@H]2C(=O)NC2(CC(C)(C)C2)C(=O)N(C)[C@@H](C2CCCC2)C(=O)N(C)[C@H](C(=O)N(C)CC)CC(=O)N1C [PP1646] | 2.8 | A (a compound having 10 or more and less than 20 is denoted as A) | A (a compound having 10 or more and less than 20 is denoted as A) |  |  |  | 
CCC[C@H]1C(=O)N[C@@H]([C@@H](C)CC)C(=O)N(C)CC(=O)N(C)[C@H]2C/C=C\CCN(C2=O)[C@@H](Cc2ccc(C(F)(F)F)cc2)C(=O)N(C)CC(=O)N[C@@H](CCc2ccc(C(F)(F)F)c(Cl)c2)C(=O)N2CC3(CC3)C[C@H]2C(=O)NC2(CC(C)(C)C2)C(=O)N(C)[C@@H]([C@@H](C)CC)C(=O)N(C)[C@H](C(=O)N(C)C)CC(=O)N1C [PP2983] | 18.7 |  |  | AA (a compound having 20 or more is denoted as AA) | A (a compound having 10 or more and less than 20 is denoted as A) |  | 
CCC[C@H]1C(=O)N[C@@H]([C@@H](C)CC)C(=O)N(C)CC(=O)N(C)[C@H]2CCCCCN(C2=O)[C@@H](Cc2ccc(C(F)(F)F)cc2)C(=O)N(C)CC(=O)N[C@@H](CCc2cc(F)c(C(F)(F)F)c(F)c2)C(=O)N2C[C@H](OCC)C[C@H]2C(=O)NC2(CCC2)C(=O)N(C)[C@@H](C2CCCC2)C(=O)N(C)[C@H](C(=O)N2CCOCC2)CC(=O)N1C [PP0679] | 40.2 |  |  |  |  | B (a compound having 3 or more and less than 10 is denoted as B) | B (a compound having 3 or more and less than 10 is denoted as B)
CCO[C@@H]1C[C@H]2C(=O)NC3(CCCC3)C(=O)N(C)[C@@H](C3CCCC3)C(=O)N(C)[C@H](C(=O)N(C)C)CC(=O)N(C)[C@@H](CC)C(=O)N[C@@H]([C@@H](C)CC)C(=O)N(C)CC(=O)N(C)[C@H]3CC(C)=C(C)CN(C3=O)[C@@H](Cc3ccc(C(F)(F)F)cc3)C(=O)N(C)CC(=O)N[C@@H](CCc3cc(F)c(C(F)(F)F)c(F)c3)C(=O)N2C1 [PP1050] | 815 |  |  | C (A compound having a KD ratio of 0.1 or more and less than 3 is denoted as C) | C (A compound having a KD ratio of 0.1 or more and less than 3 is denoted as C) |  | 
CCCN1C(=O)[C@@H]2CCN2C(=O)CN(C)C(=O)[C@H]([C@@H](C)CC)NC(=O)[C@H](CC(C)C)N(C)C(=O)C[C@@H](C(=O)N2CCOCC2)N(C)C(=O)[C@H](C2CCCC2)N(C)C(=O)C2(CCCC2)NC(=O)[C@@H]2CC(C)(C)CN2C(=O)[C@H](CCc2ccc(C(F)(F)F)c(Cl)c2)NC(=O)CN(C)C(=O)[C@@H]1Cc1ccc(C(F)(F)F)cc1 [PP0456] ([NMeL]I[Sar][Aze][NPrPhe(4-CF3)][Sar][hPhe(3-Cl-4-CF3)][Pro(4,4-Me2)][Ac5c][NMeGly(cPent)][NMeD]-Morpholide; lactam N-11) | 7 |  |  |  |  | C (A compound having a KD ratio of 0.1 or more and less than 3 is denoted as C) | C (A compound having a KD ratio of 0.1 or more and less than 3 is denoted as C)
CC[C@H](C)[C@@H]1NC(=O)[C@H](CC(C)C)N(C)C(=O)C[C@@H](C(=O)N2CCOCC2)N(C)C(=O)[C@H](C2CCCC2)N(C)C(=O)C2(CCCC2)NC(=O)[C@@H]2C[C@H](OC)CN2C(=O)[C@H](CCc2cc(F)c(C(F)(F)F)c(F)c2)NC(=O)CN(C)C(=O)[C@H](Cc2ccc(C(F)(F)F)cc2)N2CCCCC[C@@H](C2=O)N(C)C(=O)CN(C)C1=O [PP0495] | 837 |  |  |  |  | A (a compound having 10 or more and less than 20 is denoted as A) | B (a compound having 3 or more and less than 10 is denoted as B)
CC[C@H](C)[C@@H]1NC(=O)[C@H](CC(C)C)N(C)C(=O)C[C@@H](C(=O)N2CCOCC2)N(C)C(=O)[C@H](C2CCCC2)N(C)C(=O)C2(CCCC2)NC(=O)[C@@H]2CCCN2C(=O)[C@H](CCc2ccc(C(F)(F)F)c(Cl)c2)NC(=O)CN(C)C(=O)[C@H](Cc2ccc(C(F)(F)F)cc2)N2CC=CC[C@@H](C2=O)N(C)C(=O)CN(C)C1=O [PP0462] | 15.1 |  |  |  |  | C (A compound having a KD ratio of 0.1 or more and less than 3 is denoted as C) | C (A compound having a KD ratio of 0.1 or more and less than 3 is denoted as C)
CCCN1C(=O)CN(C)C(=O)CN(CC)C(=O)[C@H]([C@@H](C)CC)NC(=O)[C@H](CC(C)C)N(C)C(=O)C[C@@H](C(=O)N(C)C)N(C)C(=O)[C@H](C2CCCC2)N(C)C(=O)C2(CCC2)NC(=O)[C@@H]2C[C@@H](OCC)CN2C(=O)[C@H](CCc2ccc(C(F)(F)F)c(Cl)c2)NC(=O)CN(C)C(=O)[C@@H]1Cc1ccc(C(F)(F)F)cc1 [PP0428] ([NMeL]I[NEtG][Sar][NPrPhe(4-CF3)][Sar][hPhe(3-Cl-4-CF3)][Hyp](Et)[Ac4c][NMeGly(cPent)][NMeD]-NMe2; lactam N-11) | 4.6 |  |  |  |  | B (a compound having 3 or more and less than 10 is denoted as B) | C (A compound having a KD ratio of 0.1 or more and less than 3 is denoted as C)
CCCN1C(=O)CN(C)C(=O)CN(C)C(=O)[C@H]([C@@H](C)CC)NC(=O)[C@H](CC(C)C)N(C)C(=O)C[C@@H](C(=O)N2CCOCC2)N(C)C(=O)[C@H](C2CCCC2)N(C)C(=O)C2(CCC2)NC(=O)[C@@H]2CCCN2C(=O)[C@H](CCc2ccc(C(F)(F)F)c(Cl)c2)NC(=O)CN(C)C(=O)[C@@H]1COC1CCC1 [PP1816] ([NMeL]I[Sar][Sar][X13][Sar][hPhe(3-Cl-4-CF3)]P[Ac4c][NMeGly(cPent)][NMeD]-Morpholide; lactam N-11) | 63.8 | B (a compound having 3 or more and less than 10 is denoted as B) | C (A compound having a KD ratio of 0.1 or more and less than 3 is denoted as C) |  |  |  | 
CCCC[C@H]1C(=O)N[C@@H]([C@@H](C)CC)C(=O)N(C)CC(=O)N(C)[C@H]2C/C=C\CCN(C2=O)[C@@H](Cc2ccc(C(F)(F)F)cc2)C(=O)N(C)CC(=O)N[C@@H](CCc2ccc(C(F)(F)F)c(Cl)c2)C(=O)N2C[C@H](OCC)C[C@H]2C(=O)NC2(CC(C)(C)C2)C(=O)N(C)[C@@H](C2CCCC2)C(=O)N(C)[C@H](C(=O)N(C)C)CC(=O)N1C [PP1750] | 3.4 | A (a compound having 10 or more and less than 20 is denoted as A) | B (a compound having 3 or more and less than 10 is denoted as B) |  |  |  | 
CC[C@H](C)[C@@H]1NC(=O)[C@H](CC(C)C)N(C)C(=O)C[C@@H](C(=O)N2CCOCC2)N(C)C(=O)[C@H](C2CCCC2)N(C)C(=O)C2(CCCC2)NC(=O)[C@@H]2CCCN2C(=O)[C@H](CCc2ccc(Cl)c(Cl)c2)NC(=O)CN(C)C(=O)[C@H](Cc2ccc(C(F)(F)F)cc2)N(CC)C(=O)CN(C)C(=O)CN(C)C1=O [PP0237] ([NMeL]I[Sar][Sar][NEtPhe(4-CF3)][Sar][hPhe(3,4-Cl2)]P[Ac5c][NMeGly(cPent)][NMeD]-Morpholide; lactam N-11) | 4 |  |  | B (a compound having 3 or more and less than 10 is denoted as B) | C (A compound having a KD ratio of 0.1 or more and less than 3 is denoted as C) |  | 
CCO[C@@H]1C[C@H]2C(=O)NC3(CCC3)C(=O)N(C)[C@@H](C3CCCC3)C(=O)N(C)[C@@H](C(C)C)CC(=O)N(C)[C@@H](CC3CC3)C(=O)N[C@@H]([C@@H](C)CC)C(=O)N(C)CC(=O)N(C)[C@H]3C/C=C\CCN(C3=O)[C@@H](Cc3ccc(C(F)(F)F)cc3)C(=O)N(C)CC(=O)N[C@@H](CCc3cc(F)c(C(F)(F)F)c(F)c3)C(=O)N2C1 [PP1596] | 18.1 | A (a compound having 10 or more and less than 20 is denoted as A) | B (a compound having 3 or more and less than 10 is denoted as B) |  |  |  | 
CCO[C@@H]1C[C@H]2C(=O)NC3(CCC3)C(=O)N(C)[C@@H](C3CCCC3)C(=O)N(C)[C@H](C(=O)N(C)C)CC(=O)N(C)[C@@H](COC)C(=O)N[C@@H]([C@@H](C)CC)C(=O)N(C)CC(=O)N(C)[C@H]3C/C=C\CCN(C3=O)[C@@H](Cc3ccc(C(F)(F)F)cc3)C(=O)N(C)CC(=O)N[C@@H](CCc3cc(F)c(C(F)(F)F)c(F)c3)C(=O)N2C1 [PP1113] | 21.4 |  |  | A (a compound having 10 or more and less than 20 is denoted as A) | A (a compound having 10 or more and less than 20 is denoted as A) |  | 
CCO[C@@H]1C[C@H]2C(=O)NC3(CCC3)C(=O)N(C)[C@@H](C3CCCC3)C(=O)N(CCc3ccccc3)[C@H](C(=O)N(C)C)CC(=O)N(C)[C@@H](CC)C(=O)N[C@@H]([C@@H](C)CC)C(=O)N(C)CC(=O)N(C)[C@H]3CCCCN(C3=O)[C@@H](Cc3ccc(C(F)(F)F)cc3)C(=O)N(C)CC(=O)N[C@@H](CCc3cc(F)c(C(F)(F)F)c(F)c3)C(=O)N2C1 [PP0647] | 45 |  |  |  |  | C (A compound having a KD ratio of 0.1 or more and less than 3 is denoted as C) | B (a compound having 3 or more and less than 10 is denoted as B)
